Activity calls are given as the source filed them. No cut-off for these calls is given here.
Experiments:
Assay type in all cases: functional, cell-based
[1] = target: 5-hydroxytryptamine receptor 2B (Homo sapiens) (UniProt P41595); test: Modulation of 5-HT2B receptor (unknown origin) assessed as modulation of 5-HT induced intracellular Ca2+ release by measuring maximal efficacy at 1 uM preincubated for 15 mins followed by 5-HT addition and measured by FLIPR analysis relative to control; conditions: filed as modulator
5-hydroxytryptamine receptor 2B (Homo sapiens), sequence (P41595 whole entry): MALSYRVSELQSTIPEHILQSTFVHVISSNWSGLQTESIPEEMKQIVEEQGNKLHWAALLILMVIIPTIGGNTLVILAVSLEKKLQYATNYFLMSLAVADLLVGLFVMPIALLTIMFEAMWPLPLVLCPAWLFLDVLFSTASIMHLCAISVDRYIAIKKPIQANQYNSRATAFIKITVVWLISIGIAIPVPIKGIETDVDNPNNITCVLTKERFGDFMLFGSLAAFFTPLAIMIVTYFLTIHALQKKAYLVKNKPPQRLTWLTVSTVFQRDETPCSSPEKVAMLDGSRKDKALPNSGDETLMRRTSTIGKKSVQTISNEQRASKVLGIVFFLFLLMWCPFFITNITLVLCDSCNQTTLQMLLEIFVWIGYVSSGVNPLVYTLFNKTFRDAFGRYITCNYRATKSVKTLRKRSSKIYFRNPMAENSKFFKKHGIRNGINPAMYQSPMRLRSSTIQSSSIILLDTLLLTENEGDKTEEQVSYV

[2] = target: 5-hydroxytryptamine receptor 2A (Homo sapiens) (UniProt P28223); test: Positive allosteric modulation of human 5-HT2A receptor stably expressed in CHO cells assessed as modulation of 5-HT induced intracellular Ca2+ release by measuring maximal efficacy at 1 uM preincubated for 15 mins followed by 5-HT addition and measured by FLIPR analysis relative to control; conditions: filed as positive allosteric modulator
5-hydroxytryptamine receptor 2A (Homo sapiens), sequence (P28223 whole entry): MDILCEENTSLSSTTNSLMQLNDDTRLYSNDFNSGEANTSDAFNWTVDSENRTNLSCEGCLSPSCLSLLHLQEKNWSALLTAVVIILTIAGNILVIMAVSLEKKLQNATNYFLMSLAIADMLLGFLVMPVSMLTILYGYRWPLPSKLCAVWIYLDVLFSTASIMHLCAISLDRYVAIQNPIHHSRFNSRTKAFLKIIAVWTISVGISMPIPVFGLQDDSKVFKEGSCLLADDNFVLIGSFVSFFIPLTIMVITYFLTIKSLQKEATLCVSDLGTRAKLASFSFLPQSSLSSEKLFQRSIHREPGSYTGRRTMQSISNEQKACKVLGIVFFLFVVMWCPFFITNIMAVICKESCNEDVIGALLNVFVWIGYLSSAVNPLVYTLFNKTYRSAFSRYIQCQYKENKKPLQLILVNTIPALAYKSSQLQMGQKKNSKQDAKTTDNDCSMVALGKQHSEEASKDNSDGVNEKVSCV

[3] = target: T1, 5-hydroxytryptamine receptor 2C (Homo sapiens) (UniProt P28335); test: Positive allosteric modulation of human 5-HT2C receptor stably expressed in CHO cells assessed as modulation of 5-HT induced intracellular Ca2+ release by measuring maximal efficacy at 1 uM preincubated for 15 mins followed by 5-HT addition and measured by FLIPR analysis relative to control; conditions: filed as positive allosteric modulator
T1 sequence (whole entry): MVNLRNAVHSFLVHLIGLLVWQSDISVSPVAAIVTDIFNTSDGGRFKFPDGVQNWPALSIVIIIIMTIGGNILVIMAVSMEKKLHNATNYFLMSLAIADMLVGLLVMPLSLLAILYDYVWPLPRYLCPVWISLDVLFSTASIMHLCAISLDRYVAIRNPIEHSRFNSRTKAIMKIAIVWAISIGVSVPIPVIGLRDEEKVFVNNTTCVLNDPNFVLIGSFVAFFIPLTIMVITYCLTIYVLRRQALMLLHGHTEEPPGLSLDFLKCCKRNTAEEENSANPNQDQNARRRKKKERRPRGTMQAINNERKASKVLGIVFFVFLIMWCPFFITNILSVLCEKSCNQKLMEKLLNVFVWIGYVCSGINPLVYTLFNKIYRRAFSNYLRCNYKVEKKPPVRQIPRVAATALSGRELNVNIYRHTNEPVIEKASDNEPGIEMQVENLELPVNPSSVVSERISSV

[4] = test system: Cortical neurone; test: Induction of neurite outgrowth in Wistar rat Cortical neurons assessed as increase in neurite branching at <=10 pM incubated for 72 hrs by automated imaging based analysis
[5] = test system: Cortical neurone; test: Induction of neurite outgrowth in Wistar rat Cortical neurons assessed as increase in neurite length at <=10 pM incubated for 72 hrs by automated imaging based analysis
[6] = test system: Cortical neurone; test: Induction of neurite outgrowth in Wistar rat Cortical neurons assessed as increase in neurite number at <=10 pM incubated for 72 hrs by automated imaging based analysis

Row | Emax [1] | Emax [2] | Emax [3] | SMILES | Activity [4] | Activity [5] | Activity [6]
1 | 115% | 106% | 120% | O=C(NC[C@H](O)CO)c1cc(-c2ccccc2)ccn1 |  |  | 
2 | 106% | 97.8% | 124% | O=C(CCCc1ccccc1)NC[C@H](O)CO |  |  | 
3 |  |  |  | COc1cccc2[nH]c3c(c12)C[C@H]1CCCN1CC3 | Active | Active | Active
4 | 105% |  |  | O=C(NC[C@H](O)CO)[C@@H]1C[C@H](c2ccccc2)CCN1 |  |  | 
5 |  |  |  | CC(Cc1cnc2cc(F)ccn12)N(C)C (stereo not drawn) | Active | inactive | inactive
6 |  |  |  | COc1ccc2c3c([nH]c2c1)C[C@H]1CCCN1CC3 | Active | Active | Active
7 |  |  |  | COc1ccc2c3c([nH]c2c1)CCN1CCC[C@@H]1C3 | Active | Active | Active
8 |  |  |  | COc1ccc2c3c([nH]c2c1)CCN1CCC[C@H]1C3 | Active | Active | Active
9 |  |  |  | COc1ccc2c3c([nH]c2c1)C[C@@H]1CCCN1CC3 | Active | Active | Active
10 |  |  |  | COc1ccn2c(CC(C)N(C)C)ncc2c1 (stereo not drawn) | Active | Active | Active
